Experimental data published in patent US9663473B2 (Actelion Pharmaceuticals Ltd, priority 2013, dated 2017).
Structures can show the parent of a compound that is named as a salt.

Target: T1, recombinant human ALX receptor (Homo sapiens, UniProt P25090)
T1 construct: expressed in transfected cells; host or cells: HEK293 (HEK293-hALXR-Gα16)
T1 sequence (P25090 1-351): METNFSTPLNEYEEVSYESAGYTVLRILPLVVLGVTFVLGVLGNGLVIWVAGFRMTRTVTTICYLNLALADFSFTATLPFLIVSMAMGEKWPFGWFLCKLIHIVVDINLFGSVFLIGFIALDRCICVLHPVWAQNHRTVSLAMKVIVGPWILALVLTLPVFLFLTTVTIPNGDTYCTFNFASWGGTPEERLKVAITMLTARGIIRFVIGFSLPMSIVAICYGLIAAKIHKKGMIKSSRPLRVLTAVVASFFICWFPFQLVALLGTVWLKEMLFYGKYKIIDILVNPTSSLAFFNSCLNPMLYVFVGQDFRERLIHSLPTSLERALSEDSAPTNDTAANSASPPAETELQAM
Assay: Intracellular calcium measurements (FLIPR), ALX receptor agonistic activity
Format: cell-based
Conditions: HEK293-hALXR-Gα16 cells, Fluo-4 calcium signal, normalized to WKYMVm 10 nM
Method in brief: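 HEK293 cells co-expressing human ALX receptor and Gα16 were loaded with 1 μM Fluo-4 AM for 60 min at 37° C., then exposed to serially diluted compounds on FLIPR Tetra. Peak fluorescence above baseline (ex 488/em 540 nm) was normalized to 10 nM WKYMVm as high control.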

SMILES | EC50
COc1ccc(CC(NC(=O)NCCc2cccc(OC)c2)c2nc3ccccc3[nH]2)cc1 (stereo not drawn) [Example 47, 1-(1-(1H-Benzo[d]imidazol-2-yl)-2-(4-methoxyphenyl)ethyl)-3-(3-methoxyphenethyl)urea] | 0.137 µM
COc1ccc(CC(NC(=O)NC2CCN(C)CC2)c2nc3ccccc3[nH]2)cc1 (stereo not drawn) [Example 49, 1-(1-(1H-Benzo[d]imidazol-2-yl)-2-(4-methoxyphenyl)ethyl)-3-(1-methylpiperidin-4-yl)urea] | 0.085 µM
CCOCc1ccccc1CNC(=O)NC(Cc1ccc(OC)cc1)c1nc2ccccc2[nH]1 (stereo not drawn) [Example 50, 1-(1-(1H-Benzo[d]imidazol-2-yl)-2-(4-methoxyphenyl)ethyl)-3-(2-(ethoxymethyl)benzyl)urea] | 0.136 µM
COc1ccc(CCNC(=O)NC(Cc2ccc(OC)cc2)c2nc3ccccc3[nH]2)cc1 (stereo not drawn) [Example 53, 1-(1-(1H-Benzo[d]imidazol-2-yl)-2-(4-methoxyphenyl)ethyl)-3-(4-methoxyphenethyl)urea] | 0.539 µM
COc1ccc(C[C@@H](NC(=O)NCCc2ccc(F)cc2)c2nc3ccccc3[nH]2)cc1 [Example 55, (R)-1-(1-(1H-Benzo[d]imidazol-2-yl)-2-(4-methoxyphenyl)ethyl)-3-(4-fluorophenethyl)urea hydrochloride] | 0.137 µM
COc1ccc(C[C@@H](NC(=O)NCC2CCCO2)c2nc3ccccc3[nH]2)cc1 (stereo partly drawn) [Example 57, 1-((R)-1-(1H-Benzo[d]imidazol-2-yl)-2-(4-methoxyphenyl)ethyl)-3-((tetrahydrofuran-2-yl)methyl)urea hydrochloride] | 0.082 µM
COc1ccc(C[C@@H](NC(=O)NCc2ccccc2COC(C)C)c2nc3ccccc3[nH]2)cc1 [Example 58, (R)-1-(1-(1H-Benzo[d]imidazol-2-yl)-2-(4-methoxyphenyl)ethyl)-3-(2-(isopropoxymethyl)benzyl)urea] | 0.023 µM

Continued by falling EC50, values first:

EC50 | SMILES
1.01 µM | COc1ccc(CC(NC(=O)NCc2csc(C)n2)c2nc3ccccc3[nH]2)cc1 (stereo not drawn) [Example 48, 1-(1-(1H-Benzo[d]imidazol-2-yl)-2-(4-methoxyphenyl)ethyl)-3-((2-methylthiazol-4-yl)methyl)urea]
0.99 µM | COc1ccc(CC(NC(=O)NCc2cnc3ccccn23)c2nc3ccccc3[nH]2)cc1 (stereo not drawn) [Example 51, 1-(1-(1H-Benzo[d]imidazol-2-yl)-2-(4-methoxyphenyl)ethyl)-3-(imidazo[1,2-a]pyridin-3-ylmethyl)urea]
0.987 µM | COc1ccc(CCNC(=O)N[C@H](Cc2ccc(OC)cc2)c2nc3ccccc3[nH]2)cc1 [Example 54, (R)-1-(1-(1H-Benzo[d]imidazol-2-yl)-2-(4-methoxyphenyl)ethyl)-3-(4-methoxyphenethyl)urea]
0.601 µM | COc1ccc(CC(NC(=O)NCc2cccc(Cl)c2)c2nc3ccccc3[nH]2)cc1 (stereo not drawn) [Example 46, 1-(1-(1H-Benzo[d]imidazol-2-yl)-2-(4-methoxyphenyl)ethyl)-3-(3-chlorobenzyl)urea]
0.316 µM | COCCNC(=O)N[C@H](Cc1ccc(OC)cc1)c1nc2ccccc2[nH]1 [Example 59, (R)-1-(1-(1H-Benzo[d]imidazol-2-yl)-2-(4-methoxyphenyl)ethyl)-3-(2-methoxyethyl)urea hydrochloride]
0.221 µM | COc1ccc(CC(NC(=O)NCC2CCCC2)c2nc3ccccc3[nH]2)cc1 (stereo not drawn) [Example 52, 1-(1-(1H-Benzo[d]imidazol-2-yl)-2-(4-methoxyphenyl)ethyl)-3-(cyclopentylmethyl)urea]
0.161 µM | CCOc1ccccc1CNC(=O)N[C@H](Cc1ccc(OC)cc1)c1nc2ccccc2[nH]1 [Example 60, (R)-1-(1-(1H-Benzo[d]imidazol-2-yl)-2-(4-methoxyphenyl)ethyl)-3-(2-ethoxybenzyl)urea hydrochloride]
0.109 µM | COc1ccc(C[C@@H](NC(=O)NCCc2ccccc2Cl)c2nc3ccccc3[nH]2)cc1 [Example 56, (R)-1-(1-(1H-Benzo[d]imidazol-2-yl)-2-(4-methoxyphenyl)ethyl)-3-(2-chlorophenethyl)urea hydrochloride]
